Entries after “also recorded” stand apart in the source; their conditions may differ.
Tests used:
[1] = tested on: 129S6/SvEv mice; assay: DMM induced OA (PTOA) in 129S6/SvEv mice, oral 3TC or FTC; format: in vivo, mouse; settings: for Adamts5 mRNA in cartilage / Col10 (Col 10a1) mRNA in cartilage / Line-1 level in cartilage / Mmp13 mRNA in cartilage / miR-365 induction by DMM: DMM mice, qPCR, versus Saline; for body weights, drug versus control treatment groups: DMM or Sham mice, drug in water from 8 weeks old for 4 weeks; for DMM induced proteoglycan loss in surgical knees: histology, drug in water for 4 weeks; for DMM induced OA / cartilage joint degeneration (Safranin O, OARSI quantification): oral administration for 1 month from 2-month-old
Text: 12956/SvEv strain male mice were purchased from Taconic (https://www.taconic.com/mouse-model/129s6) at their age of 7-week-old. At least 3-day (72-hrs) acclimation period must be given to mice before any further procedures occurred to them. All 12956/SvEv strain mice throughout the studies were male.
129S6/SvEv male mice were chosen for experimental subjects at their age of 8-week-old. To create mouse injury/trauma induced OA model, medial meniscus ligament was transected using a previously described method (Lohmander, L. S., et al. Am J Sports Med 35, 1756-1769 (2007)). Briefly, 8-week-old male mice were anesthetized using either intraperitoneal (IP) injection of Ketamine/Dexmedetomidine or isoflurane to carry out medial parapatellar arthrotomy. Transection was made with a stab knife (Sharpoint™, Cat. 72-1551). At Weeks 12, mice were euthanized and dissected for histological examination as well as cartilage RNA extraction. 12 mice were used for each group/time point.
Paraffin sections were de-paraffinized in 2 changes of xylene, 10 mins each, followed by re-hydration in 2 changes of 100% alcohol, 5 mins each; 2 changes of 95% alcohol, 5 mins each; 70% alcohol for 5 mins. Sections were then rinsed in running tap water for 2 mins before stained with 0.4% fast green solution (Sigma, Cat. F-7258, St. Louis, Mo. 63103 USA) for 2 mins however the latter timing must be empirically controlled to assure desired coloration. Stained sections were then quickly rinsed with 1% acetic acid solution (Sigma, Cat. 695092-500ML-GL, St. Louis, Mo. 63103 USA) for no more than 10-15 sec. 0.1% Safranin O Solution was used for staining proteoglycan however the actual timing must be carefully determined based on actual coloring condition, for maximally 10 mins. After Safranin O staining, sections were submerged in 2 changes of 95% alcohol, 2 mins each, 2 changes of 100% alcohol, 2 mins each for de-hydration. Lastly, sections were cleared in 2 changes of xylene, 2 mins each, and mounted using resinous mounting medium (ACRYMOUNT™, Cat. SL80-4, McKinney, Tex. 75069 USA).
To histologically evaluate OA severity, we quantified Safranin O stained knee sections according to OARSI semi-quantitative system as previously described^3.
Both miRNA and mRNA were extracted using miRNeasy Mini Kit (Qiagen®, Germantown, Md., USA) and reversely transcribed using miScriptIIRT Kit (Qiagen®, Germantown, Md., USA) according to manufacturer's instruction. qPCR was performed using SYBR Green PCR master mix (Qiagen®, Germantown, Md., USA) on a Bio-Rad CFX96 real-time PCR detection system (Bio-Rad®, Hercules, Calif., USA). Amplification conditions are as follows: 95° C. for 10 min, 40 cycles of 95° C. for 10″, 55° C. for 30″, and 72° C. for 30″. 18S ribosomal or GAPDH RNA was used as an internal control gene to normalize the mRNAs level. The ubiquitously expressed snRNA U6 was used as an endogenous control for miRNAs level. Primers were synthesized by Integrated DNA Technologies (http://www.idtdna.com). The primers for miR-365 were purchased from Qiagen. Fold changes of mRNA and miRNAs were calculated by the 2^^(ΔΔCt) method and normalized to 18S/GAPDH or U6 snRNA, respectively.

[2] = tested on: HIV patients; assay: summary data of NRTI on OA in HIV patients; format: in vivo, human; settings: HIV patients, older than 50, dosage dependent, both male and female
Text: Medical provider diagnoses of ICD-9-CM 715 [osteoarthrosis and allied disorders] include the following definitions: 1) strict=ICD-9-CM 715; 2) expanded=ICD-9-CM 715, 716 [other and unspecified arthropathies], OR 719 [other and unspecified disorders of joint]); and 3) probable=strict OR expanded+respondent-reported prior diagnosis of OA or other arthritis excluding rheumatoid arthritis (RA).

[3] = tested on: mouse femur articular cartilage; assay: femur explant organ culture with 3TC or FTC, RT-qPCR of articular cartilage; format: cell-based; settings: 10 μM 3TC or 25 μM FTC, 48 hrs
Text: Femurs were obtained from 21-day-old WT C57BL/6 mice. Femurs with intact articular surface and periosteum was sterilely dissected under microscope. Upon harvesting, femurs were rinsed with HBSS (Gibco®, Grand Island, N.Y. 14072 USA) and then submerged into DMEM (Gibco, Grand Island, N.Y. 14072 USA) medium supplemented with 10% fetal bovine serum (FBS, Gibco®, Grand Island, N.Y. 14072 USA) in 12-well culture dishes. The first-generation cytidine analogue/NRTI-3TC or newest-generation cytidine analogue/NRTI-FTC was added into the medium with desired concentrations. After a total of 48 hrs incubation at 37° C. in an atmosphere of 5% CO2, femurs were rinsed with HBSS and articular cartilage was peeled off using surgical scalpels under dissecting microscope for RNA extraction. Both miRNA and mRNA were extracted using miRNeasy Mini Kit (Qiagen®, Germantown, Md., USA) and reversely transcribed using […] (Qiagen®, Germantown, Md., USA) according to manufacturer's instruction. qPCR was performed using SYBR Green PCR master mix (Qiagen®, Germantown, Md., USA) on a Bio-Rad CFX96 real-time PCR detection system (Bio-Rad®, Hercules, Calif., USA). Amplification conditions are as follows: 95° C. for 10 min, 40 cycles of 95° C. for 10'', 55° C. for 30'', and 72° C. for 30''. 18S ribosomal or GAPDH RNA was used as an internal control gene to normalize the mRNAs level. The ubiquitously expressed snRNA U6 was used as an endogenous control for miRNAs level. […] The primers for miR-365 were purchased from Qiagen. Fold changes of mRNA and miRNAs were calculated by the 2^^(ΔΔCt) method and normalized to 18S/GAPDH or U6 snRNA, respectively.

SMILES	Adamts5 mRNA in cartilage [1]	Col10 (Col 10a1) mRNA in cartilage [1]	Line-1 level in cartilage [1]	Mmp13 mRNA in cartilage [1]	miR-365 induction by DMM [1]	body weights, drug versus control treatment groups [1]	DMM induced proteoglycan loss in surgical knees [1]	DMM induced OA / cartilage joint degeneration (Safranin O, OARSI quantification) [1]	strict OA (ICD-9-CM 715) [2]	Acan expression [3]	Adamts5 expression [3]	Col2 (Col2a1) expression [3]	Col10 (Col10a1) expression [3]	Ifn-α mRNA level [3]	Ihh mRNA level [3]	Line-1 (L1) levels [3]	Mmp3 mRNA level [3]	Mmp13 expression [3]
Nc1nc(=O)n([C@@H]2CS[C@H](CO)O2)cc1F [FTC, 2′,3′-dideoxy-5-fluoro-3′-thiacytidine]	significantly repressed	significantly repressed	inhibition	significantly repressed	significantly prohibit	No appreciable difference	effectively prevent	significantly prevented; also recorded: significantly inhibited	inhibiting	induces; also recorded: increased	inhibits; also recorded: significantly inhibited	increased	significantly inhibited	significantly inhibited	significantly inhibited	significantly inhibited	significantly inhibited	inhibits; also recorded: significantly inhibited
Nc1ccn([C@@H]2CS[C@H](CO)O2)c(=O)n1 [3TC, lamivudine]	significantly repressed	significantly repressed	inhibition	significantly repressed	significantly prohibit	No appreciable difference	effectively prevent	significantly prevented; also recorded: significantly inhibited	inhibiting	induces; also recorded: increased	inhibiting; also recorded: significantly inhibited	induces; also recorded: increased	inhibiting; also recorded: significantly inhibited	significantly inhibited	significantly inhibited	inhibiting; also recorded: significantly inhibited	significantly inhibited	inhibiting; also recorded: significantly inhibited

Reference: US12121530B2, “Composition and methods for treating articulating joint disorders with nucleoside reverse transcriptase inhibitors” (RHODE ISLAND HOSPITAL, priority 2018, dated 2024)
